According to patent publication US10064843B2, “Bis-amide derivative and use thereof” (University-Industry Cooperation Group of Kyung Hee …, priority 2013, dated 2018):
Where two headings read alike, the source gives them in different places.

Key:
[1] = molecular target: T1, CypA (Homo sapiens, UniProt P62937); test: PPIase activity of CypA, coupled chymotrypsin analysis; type: biochemical
T1 construct: GST (N, cleaved yes); made in house; host or cells: E. coli (pGEX-KG)
Experimental: Example 5: Analysis of Peptidyl-Prolyl Cis-Trans Isomerase Activity
The PPIase activity of CypA was determined according to a known method using the coupled chymotrypsin analysis.
The cis-trans isomerization was measured by absorbance at 390 nm in a spectrophotometer. Additionally, the remaining percentage of enzyme activity was measured at different concentrations of the inhibitor to calculate the 50% inhibition concentration (IC50) to the PPIase activity. Data was optimized via graphs by exporting using Graph Pad Prism 5.

[2] = molecular target: T1, CypA; test: 2D 1H TOCSY NMR of the WJCPA-126 and CypA complex; type: binding; settings: FIG. 4
Text: In the spin system of […],[…], and […] of CypA, the connectivity was shown in yellow-, green-, and red solid lines. […] From the above result, it was confirmed that the bis-amide compounds of the present invention can specifically bind to […],[…], and […] residues of CypA thereby inhibiting the PPIase activity of CypA.

[3] = test system: calcineurin; test: Calcineurin phosphorylase analysis in splenocytes; type: cell-based, mouse; settings: FIG. 8b
Experimental: Example 6: Analysis of Calcineurin Phosphorylase
Dephosphorylation of RH phosphopeptide was measured using calcineurin cell activity assay kit (Enzo Life sciences, Plymouth Meeting, Pa., USA) to determine calcium-dependent activity of calcineurin. Splenocytes (2×10^6/well) were incubated along with or WJCPA-126 for 20 hours, and further untreated or stimulated with 1 μg/mL of ionomycin (Calibiochem, La Jolla, Calif., USA). Then, the cells were used for the measurement of calcineurin activity.

[4] = test system: NFAT1; test: NFAT dephosphorylation by western blot and immunofluorescence; type: cell-based, mouse
Experimental: Upon stimulation, the cells were washed with sterile PBS, suspended in lysis buffer (Invitrogen, Carlsbad, Calif., USA), incubated on ice for 10 minutes, and centrifuged at 19,000 g for 15 minutes. The phosphorylation state of the NFAT protein in the supernatant was confirmed by western blot analysis using monoclonal anti-NFATc 1. For the confirmation of NFAT1 localization using a confocal microscope, the cells were washed and then fixed by treating with 3.7% formaldehyde at room temperature for 20 minutes. […] Upon incubation, the cells were washed twice with PBS and incubated in a dark room at room temperature with secondary antibody, which was conjugated with Alexa 546 (Invitrogen, Carlsbad, Calif., USA) diluted in PBS containing 3% BSA at a 1:200 ratio, for 2 hours. […] Finally, the cells were washed once with PBS and mounted onto glass slides using a coverslip and a mounting solution (Vector Mount, Calif., USA). The images were captured via Zeiss confocal laser scanning microscope (Zeiss, Germany).

[5] = test system: IL-2 production; test: IL-2 concentration by ELISA in splenocytes; type: cell-based, mouse; settings: up to 10 μM; FIG. 9c
Experimental: Upon incubation, the cultures from three different wells were collected and IL-2 concentration was analyzed by ELISA according to the protocol by Enzo life Science (Plymouth Meeting, Pa., USA). IL-2 concentration was calculated based on the IL-2 standard solution.

[6] = in vitro; type: cell-based, hepatitis C virus; settings: genotype 2a JFH1; FIG. 11b
[7] = test system: genotype 2a (JFH1) replication cells; test: microbe, parasite or virus in culture; type: cell-based, hepatitis C virus; settings: Hepatitis C virus
[8] = molecular target: T2, GST-CypA and NS5A or NS5B (Homo sapiens, UniProt P62937); test: GST pull-down assay of CypA with NS5A or NS5B; type: binding; settings: 2 μM and 4 μM; FIG. 12b
T2 construct: made in house; host or cells: E. coli (pGEX-KG)
T2 sequence (P62937 whole entry): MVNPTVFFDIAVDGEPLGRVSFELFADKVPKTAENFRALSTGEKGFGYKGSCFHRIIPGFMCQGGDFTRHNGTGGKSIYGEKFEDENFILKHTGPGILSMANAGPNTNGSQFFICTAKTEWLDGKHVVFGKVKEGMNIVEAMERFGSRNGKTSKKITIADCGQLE
Experimental: Example 15: Expression and Purification of GST Proteins
A plasmid pGEX-KG was used for the expression of recombinant proteins in E. coli. GST-CypA, a mutant GST-CypAR55A (a mutation at PPIase site), GST-CypB, GST-NS5A, and the full length GST-NS5B were prepared by a standard replication process. The bacteria expression vector, pGEX-KG, was transformed into TOPIOF cells (Promega, Madison, Wis., USA). The bacteria culture was grown in LB medium containing 100 μg/mL of ampicillin until the optical density at 600 nm reached 0.8 to 1.0. Then, 0.1 mM isopropyl β-D-1-thiogalactopyranoside (IPTG) was added thereto to induce the expression of a GST fusion protein and incubated further at 30° C. for 4 hours. The resulting bacteria was pelleted by centrifugation at 340 g for 20 minutes at 4° C., resuspended in 10 mL PBST (PBS containing 1% Triton X-100), added with 1 mM PMSF, and subjected to sonication at 25% amplitude with a brake at intervals of 10 seconds for 30 minutes. Upon sonication, the bacteria extract was centrifuged at 340 g for 5 minutes at 4° C. and the supernatant containing GST protein was stored at −80° C. The GST fusion protein was cleaved in thrombin-cleaving buffer containing 50 units of thrombin overnight so that the recombinant proteins could be released from the GST-tagged glutathione resin. […]

[9] = test system: HCV replicon cell; test: Combined treatment: MTT analysis in HCV replicon cell; type: cell-based, human
Experimental: Example 9: Analysis of Cytotoxicity
Cytotoxicity was analyzed in a 96-well plate using 5 mg/mL of MTT (3-(4,5-dimethylthiasol-2-yl)-2,5-diphenyltetrazolium bromide). The optical density of cells was measured at 550 nm using a microplate reader (Bio-Rad, Richmond, Calif., USA). Cell viability rate was expressed in percentage of the absorbance of treated cells relative to the absorbance of untreated cells.

T1 sequence (P62937 whole entry): as above

COc1cc(C(C(=O)NC2CCCCC2)N(C(=O)Cc2c[nH]c3ccccc23)c2ccc(C(C)C)cc2)cc(OC)c1OC (stereo not shown) [WJCPA-126, N-cyclohexyl-2-[(2-1H-indol-3-yl-acetyl)-(4-isopropyl-phenyl)-amino]-2-(3,4,5-trimethoxy-phenyl)-acetamide]
inhibitory effect against the PPIase activity of CypA ([1]; 1 μM, 20 nM CypA, FIG. 3a): strong inhibitory effect | IC50 ([1]; FIG. 3b, read-out: IC50 PPIase activity): 3.5 nM | IC50 ([1]; FIG. 7a, read-out: IC50 PPIase activity of CypA): 3.6 nM | binding residues of CypA by NMR [2]: binds to Arg 55, Trp 121, and Phe 113 residues of CypA | effect on ionomycin-stimulated calcineurin phosphorylase activity [3]: no inhibitory effect | NFAT1 migration into the nucleus ([4]; ionomycin stimulation, FIG. 9b): significant localization of NFAT1 within the nucleus | phosphorylation state of NFAT1 ([4]; ionomycin-stimulated, FIG. 9a): maintained the dephosphorylated state of NFAT1 | ionomycin-induced IL-2 production [5]: did not show any inhibitory activity | CC50 [6]: 22300 ± 4230 nM | EC50 [7]: 1100 ± 50 nM | binding between GST-CypA and NS5A or NS5B [8]: significant decrease of the binding between GST-CypA and NS5A or NS5B | cytotoxicity in combined treatment ([9]; in combination with IFN-α, RBV, or telaprevir, FIG. 16a): did not show any noticeable cytotoxicity | cell viability in combined treatment ([9]; in combination with interferon-α, ribavirin, or telaprevir): ≥ 80%
